# Values of other authors, collected in patent publication US20150024042A1 (POZEN INC., priority 2011, published 2015).
# Legend:
# [1] = in vivo
# [2] = 95% CI 0.84 to 0.98
# [3] = repeated oral doses of 75 mg clopidogrel (base)
structure (smiles),measurement,setting,value
COC(=O)[C@H](c1ccccc1Cl)N1CCc2sccc2C1 [clopidogrel],"gastrointestinal hemorrhage, incidence",[1],2.0 % annually
same,"cardiovascular events compared with aspirin, OR",[2],0.91
same,time of peak plasma levels of the main circulating metabolite after dosing,[3],approximately one
